# Experimental data reported in patent publication US20170165253A1, “TREATMENT OF SEXUAL DYSFUNCTION AND FOR IMPROVED SEXUAL QUALITY OF LIFE” (ReJoy, priority 2015, published 2017).
# Where “and” joins values, the source holds several entries; their conditions need not be identical. Equal values may be shown once. Where a name gives a salt, the structure may show the parent alone.
# How the values were obtained:
# [1] = system: nipple areola complex; test: Blinded study of 10%, 15%, 20% phenylephrine on the NAC: erection, sensitivity, lubrication, arousal (Example 12); assay type: in vivo, human; conditions: for Arousal / Lubrication: 60 minutes, change from baseline; for Responders, Arousal / Responders, Lubrication: 20 patients; for Erection: 1 = erection reported
# Method: 20 healthy, pre-menopausal females were recruited to the study. Subjects were instructed to apply either 4 or 6 drops of an investigational drug to each nipple areola complex. Baseline blood-pressure, heart rate, nipple erection, nipple sensitivity, genital lubrication and arousal were measured and recorded. 30 minutes later, blood pressure and heart rate were measured and recorded. 60 minutes later, blood-pressure, heart rate, nipple erection, nipple sensitivity, genital lubrication and arousal were measured and recorded.
# During the study, four parameters of efficacy were measured: nipple erection, nipple sensitivity, genital lubrication, and arousal. Efficacy parameters were all patient reported outcomes measured at 0 and 60 minutes after the application of the investigational drug. Nipple erection was determined by asking the patient if they had experienced nipple erection during the 60 minutes after the application of the investigational drug. Nipple sensitivity was measured with a Likert scale of 1-10 (1 being “insensitive”, 10 being “extremely sensitive/bordering on pain”) at 0 and 60 minutes after the application of the investigational drug. Genital lubrication was measured with a Likert scale of 1-10 (1 being “none”, 10 being “excellent”) at 0 and 60 minutes after the application of the investigational drug. Arousal was measured with a Likert scale of 1-10 (1 being “none”, 10 being “extremely aroused”) at 0 and 60 minutes after the application of the investigational drug.
# After a 48-hour washout period, subjects repeated the procedure using 4 or 6 drops of a new arm of the study. The subjects and the investigator were blinded to the drug assignment in each arm. In total 6 arms were tested:
# Nipple erection data was scored “1” for a positive response to the question “Did you experience nipple erection after applying the solution?” It was scored “0” otherwise. Sensitivity data was tabulated by subtracting the patient reported nipple sensitivity at 60 minutes from the reported value at baseline. Subjects were asked to rate their level of nipple sensitivity on a scale of 1-10 (1 being “non-sensitive” and 10 being “extremely sensitive, bordering on pain.”) Subjects reporting a sensitivity increase greater than 2 after the application of each investigational drug were considered sensitivity responders.
# Genital lubrication was measured with a Likert scale of 1-10 (1 being “none” and 10 being “excellent”) at 0 and 60 minutes after the application of the investigational drug. Arousal was measured with a Likert scale of 1-10 (1 being “none” and 10 being “extremely aroused”) at 0 and 60 minutes after the application of the investigational drug. […] A subject was considered a responder for genital lubrication if they reported a change in genital lubrication of 2 or more.
# A subject was considered a responder for arousal if they reported a change in arousal of 2 or more.
# [2] = IVRT Franz cell skin penetration, excised pig skin; assay type: in vitro ADME; conditions: for Penetration (%), Sample 1-3 / Penetration (%), Average: pig skin; for Penetration (%), Sample 1-3: single replicates, Hydrochloride
# Excerpt: Transdermal penetration of a particular formulation can be assessed with in vitro release testing (IVRT) using a Franz cell. See Bartosova and Bajagar, “Transdermal Drug Delivery In Vitro Using Diffusion Cells,” Current Medicinal Chemistry, 2012, 19, 4671-4677.
# In order to determine the dermal absorption and bioavailability of topically applied 10% Phenylephrine Hydrochloride solution, we used an IVRT experimental setup with both skin excised from pig ears and a synthetic skin model (Maine Manufacturing, LLC, Me., USA).
# In the example, the following data was obtained from a Franz cell diffusion experiment using excised pigskin barrier. A 50 microliter aliquot of a phenylephrine solution was allowed to penetrate through 9 mm diameter sample of pigskin into a 5 mL reservoir of phosphate buffered saline. Phenylephrine concentration was determined in the reservoir by measuring the optical absorbance at 214 nm at time points subsequent to the application of the formulation. In the following example the test solution was 10% (w/w) phenylephrine, 10% (w/w) Dimethyl Isosorbide, and 80% (w/w) ethanol. From the data below, it can be concluded that the formulation can be deemed “successful” because 82% of the applied drug penetrated the pigskin membrane in 3 hours. The experiment was run in triplicate. The average of all three data is shown. It is envisioned that additional studies may be undertaken with other models of in vitro release testing or with variations of the same model to compare with the data reported below.
# [3] = IVRT Franz cell skin penetration, excised pig skin; assay type: in vitro ADME
# [4] = 10% (Arm C), change of 2 or more
# [5] = 15% (Arm D), single patients, Hydrochloride
# [6] = 20% (Arm B), single patients, Hydrochloride
structure (smiles),measurement,setting,value
"CNC[C@H](O)c1cccc(O)c1 [Phenylephrine HCl, Phenylephrine Hydrochloride]","Percent responders, Arousal",[1]; 10% (Arm C),0%
same,"Percent responders, Lubrication",[1]; 10% (Arm C),5%
same,Arousal,"[1]; 10% (Arm C), Likert 1-10, single patients",0
same,Lubrication,"[1]; 10% (Arm C), Likert 1-10, single patients, Hydrochloride",0 (17×) and 1 (2×) and 2
same,"Responders, Arousal",[1]; [4],0
same,"Responders, Lubrication",[1]; [4],1
same,"% Responders, Erection","[1]; 10%, four drops",37%
same,"% Responders, Sensitivity","[1]; 10%, four drops",16%
same,Erection,"[1]; 10%, four drops (0.114 mL) per NAC, 0 otherwise, single patients, listed as PE, Hydrochloride",0 (11×) and 1 (8×)
same,"Responders, Erection","[1]; 10%, four drops, 19 patients",7
same,"Responders, Sensitivity","[1]; 10%, four drops, 19 patients",3
same,Sensitivity,"[1]; 10%, four drops, change baseline to 60 minutes, scale 1-10, single patients, listed as PE, Hydrochloride",1 (7×) and 0 (9×) and 5 and 2 (2×)
same,"% Responders, Erection","[1]; 10%, six drops",50%
same,"% Responders, Sensitivity","[1]; 10%, six drops",44%
same,Erection,"[1]; 10%, six drops (0.170 mL) per NAC, single patients, listed as PE, Hydrochloride",1 (8×) and 0 (8×)
same,"Responders, Erection","[1]; 10%, six drops, 16 patients",8
same,"Responders, Sensitivity","[1]; 10%, six drops, 16 patients",7
same,Sensitivity,"[1]; 10%, six drops, change baseline to 60 minutes, scale 1-10, single patients, listed as PE, Hydrochloride",4 (2×) and 0 (6×) and 1 (3×) and 3 (2×) and 2 (3×)
same,"Percent responders, Arousal",[1]; 15% (Arm D),0%
same,"Percent responders, Lubrication",[1]; 15% (Arm D),10%
same,"Responders, Arousal",[1]; 15% (Arm D),0
same,"Responders, Lubrication",[1]; 15% (Arm D),2
same,Arousal,[1]; [5],0 (19×) and −1
same,Lubrication,[1]; [5],0 (15×) and 2 and 1 (3×) and 3
same,"% Responders, Erection","[1]; 15%, four drops",42%
same,"% Responders, Sensibility","[1]; 15%, four drops",53%
same,"Responders, Erection","[1]; 15%, four drops, 19 patients",8
same,"Responders, Sensibility","[1]; 15%, four drops, 19 patients",10
same,Erection,"[1]; 15%, four drops, single patients, listed as PE, Hydrochloride",0 (11×) and 1 (8×)
same,Sensibility,"[1]; 15%, four drops, change baseline to 60 minutes, scale 1-10, single patients, listed as PE, Hydrochloride",0 (7×) and 2 (5×) and 5 and 1 (2×) and 3 (3×) and 9
same,"Percent responders, Arousal",[1]; 20% (Arm B),0%
same,"Percent responders, Lubrication",[1]; 20% (Arm B),20%
same,"Responders, Arousal",[1]; 20% (Arm B),0
same,"Responders, Lubrication",[1]; 20% (Arm B),4
same,Arousal,[1]; [6],0 (19×) and 1
same,Lubrication,[1]; [6],0 (15×) and 2 (3×) and 1 and 3
same,"% Responders, Erection","[1]; 20%, four drops",68%
same,"% Responders, Sensitivity","[1]; 20%, four drops",42%
same,"Responders, Erection","[1]; 20%, four drops, 19 patients",13
same,"Responders, Sensitivity","[1]; 20%, four drops, 19 patients",8
same,Erection,"[1]; 20%, four drops, single patients, listed as PE, Hydrochloride",1 (13×) and 0 (6×)
same,Sensitivity,"[1]; 20%, four drops, change baseline to 60 minutes, scale 1-10, single patients, listed as PE, Hydrochloride",0 (7×) and 1 (4×) and 2 (5×) and 4 (2×) and 9
same,average absorption per nipple-areola complex,[2]; 0.1 mL of 10% solution not removed for 24 hours,8.3 mg
same,applied drug penetrated the pigskin membrane,"[2]; 10% (w/w) in 10% Dimethyl Isosorbide, 80% ethanol, 3 hours",82%
same,"Penetration (%), Sample 1-3","[2]; 10% solution, 50 microliter, 1 h",32.3% and 2.1% and 0.7%
same,"Penetration (%), Average","[2]; 10% solution, 1 h",11.7%
same,"Penetration (%), Average","[2]; 10% solution, 2 h",61.1%
same,"Penetration (%), Sample 1-3","[2]; 10% solution, 2 h",80.6% and 89.0% and 13.6%
same,"Penetration (%), Average","[2]; 10% solution, 3 h",82.8%
same,"Penetration (%), Sample 1-3","[2]; 10% solution, 3 h",78.9% and 87.5% and 81.9%
same,"Penetration (%), Average","[2]; 10% solution, 4 h",81.0%
same,"Penetration (%), Sample 1-3","[2]; 10% solution, 4 h",78.6% and 83.4% and 81.1%
same,"Penetration (%), Average","[2]; 10% solution, 5 h",81.9%
same,"Penetration (%), Sample 1-3","[2]; 10% solution, 5 h",78.5% and 86.0% and 81.3%
same,"Penetration (%), Average","[2]; 10% solution, 24 h",81.6%
same,"Penetration (%), Sample 1-3","[2]; 10% solution, 24 h",81.3% and 83.1% and 80.3%
same,maximal skin absorption in 24 hours,"[2]; 10% solution, skin excised from pig ears",≤ 83%
same,total absorption over 24 hours,"[3]; 0.1 mL of 10% solution per NAC, both NAC",16.6 mg
same,less systemic exposure compared to the oral OTC drug,[3]; topical dosage vs one 10 mg oral tablet every 4 hours,approximately 45%
